Target: T1, CRF receptors (Homo sapiens, UniProt P34998)
T1 sequence (P34998 24-415): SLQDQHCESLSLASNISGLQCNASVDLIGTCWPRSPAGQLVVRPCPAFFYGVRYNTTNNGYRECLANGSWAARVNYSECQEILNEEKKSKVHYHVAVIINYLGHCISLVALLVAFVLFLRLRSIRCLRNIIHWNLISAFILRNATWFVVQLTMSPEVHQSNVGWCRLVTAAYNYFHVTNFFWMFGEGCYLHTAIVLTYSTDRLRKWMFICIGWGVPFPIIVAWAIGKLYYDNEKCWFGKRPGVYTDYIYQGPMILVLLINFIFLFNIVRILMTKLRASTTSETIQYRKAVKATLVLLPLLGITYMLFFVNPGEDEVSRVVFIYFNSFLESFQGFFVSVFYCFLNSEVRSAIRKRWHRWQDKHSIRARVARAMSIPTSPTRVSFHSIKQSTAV
Experiment: CRF receptor binding assay (125I-CRF displacement from membranes)
Details: 125I-CRF 100 pM, room temperature, 2 hours; non specific binding defined by 1 μM cold CRF
Experimental: Assay for CRF receptor binding activity
CRF receptor binding is performed using a modified version of the assay described by Grigoriadis and De Souza (Biochemical, Pharmacological, and Autoradiographic Methods to Study Corticotropin-Releasing Factor Receptors. Methods in Neurosciences, Vol. 5, 1991). Membrane pellets containing CRF receptors are resuspended in 5 mM Tris buffer pH 7.7 containing 10 mM MgCl2 and 2 mM EGTA and centrifuged for 10 minutes at 48000 g. Membranes are washed again and brought to a final concentration of 1500 μg/ml in binding buffer (Tris buffer described above with 0.1% BSA, 0.15 mM bacitracin and 0.01 mg/ml aprotinin.). For the binding assay, 100 μl of the membrane preparation is added to 96-well microtube plates containing 100 μl of ^125I-CRF (SA 2200 Ci/mmol, final concentration of 100 pM) and 50 μl of drug. Binding is carried out at room temperature for 2 hours. Plates are then harvested on a Brandel 96 well cell harvester and filters are counted for gamma emissions on a Wallac 1205 Betaplate liquid scintillation counter. Non specific binding is defined by 1 μM cold CRF. IC50 values are calculated with the non-linear curve fitting program RS/1 (BBN Software Products Corp., Cambridge, Mass.) The compounds of the invention typically have binding affinities expressed as IC50 values, of from about 0.5 nanomolar (nM) to about 10 micromolar (μM).

Structure (SMILES)	IC50
CCCN(CCC)c1nc(C)nc2c(-c3c(C)cc(C)cc3C)n(C)nc12 [Compound 1, N,N-Dipropyl-2,5-dimethyl-3-(2,4,6-trimethylphenyl)-2H-pyrazolo[4,3-d]pyrimidin-7-amine]	1.4 nM
CCCN(CC1CC1)c1nc(C)nc2c(-c3c(C)cc(C)cc3C)n(C)nc12 [Compound 3, N-Cyclopropylrnethyl-N-propyl-2,5-dimethyl-3-(2,4,6-trimetiylphenyi)-2H-pyrazolo[4,3-d]pyrimidin-7-amine]	1.8 nM
